Reference: US20050113286A1, “Methods for treating congestive heart failure” (priority 2002, published 2005)

What was measured:
[1] = test system: patients with acutely decompensated congestive heart failure; conditions: in vivo; cited from earlier work
[2] = test system: symptoms of acute decompensated HF; conditions: VMAC trial; cited from earlier work
aldosterone = assay: FUSION I: serum aldosterone; assay type: in vivo, human
Text: (§1) Surrogate measures with mechanistic implications included measures of serum aldosterone, serum endothelin-1, and serial measurements of ventricular function using ejection fractions derived from echocardiography. Pre-infusion aldosterone and endothelin-1 concentrations were collected and analyzed at a core lab (The Mayo Clinic, Rochester, Minn.) at weeks 1, 4, 8, and 12; post-infusion concentrations were collected at weeks 1 and 12. Left ventricular ejection fractions were serially measured and read at a core lab (Midwest Heart Foundation Echocardiographic Core Laboratory, Lombard, Ill.).

[3] = test system: patients with chronic decompensated HF; assay: FUSION I: quality of life, Minnesota Living With HF questionnaire; assay type: in vivo, human; conditions: weeks 4, 8, and 12
Method: At weeks 4, 8, and 12, the change from baseline global clinical status was assessed by both the patient and the investigator; assessments were rated on a 7-point ordinal scale from markedly worse (−3) to markedly better (+3).^1l,12 In addition, patients' assessment of quality of life was measured at baseline and at weeks 4, 8, and 12 using the Minnesota Living With HF questionnaire. (Rector TS, Kubo SH, Cohn J N. Patients' self-assessment of their congestive heart failure. Part 2: Content, reliability and validity of a new measure, The Minnesota Living with Heart Failure Questionnaire. Heart Failure 1987;October/November:198-209.)

[4] = test system: patients with chronic decompensated HF; assay: FUSION I: left ventricular ejection fraction by echocardiography; assay type: in vivo, human
Text: as §1

endothelin-1 = assay: FUSION I: serum endothelin-1; assay type: in vivo, human
Text: Surrogate measures with mechanistic implications included measures of serum aldosterone, serum endothelin-1, and serial measurements of ventricular function using ejection fractions derived from echocardiography. […] Left ventricular ejection fractions were serially measured and read at a core lab (Midwest Heart Foundation Echocardiographic Core Laboratory, Lombard, Ill.).

Nesiritide: a recombinant form of human B-type natriuretic peptide (BNP)
Ventricular rhythm disturbances [1]: did not engender ventricular rhythm disturbances | Resolution of the symptoms of acute decompensated HF versus IV diuretics or nitroglycerin [2]: more rapid resolution | Post-infusion levels of aldosterone versus baseline (aldosterone; after the week 12 infusion, 0.01-μg/kg/min and all-nesiritide group, p<0.02 (FIG. 2A)): significant changes from baseline | Mean pre-infusion aldosterone values over time (aldosterone; any treatment group): no significant changes | Mean change from baseline (±standard deviation) in post-infusion aldosterone (aldosterone; week 1, 0.005-μg/kg/min): -5.0 ± 14.8 pg/mL | Mean change from baseline (±standard deviation) in post-infusion aldosterone (aldosterone; week 1, 0.01-μg/kg/min, p=0.02 compared to baseline): -10.9 ± 22.8 pg/mL | Mean post-infusion values of aldosterone versus baseline (aldosterone; weeks 1 and 12, both nesiritide groups): significant declines | Quality of life, between treatment groups [3]: no significant differences | Quality of life compared with baseline ([3]; all treatment groups): significant improvement | Mean change in ejection fraction from baseline to week 12 ([4]; 0.005-μg/kg/min): +4.0±3.3% | Mean change in ejection fraction from baseline to week 12 ([4]; 0.01-μg/kg/min, p=0.03 compared with the usual-care group): +5.3±5.0% | Mean change (±standard deviation) in post-infusion concentration of endothelin-1 (endothelin-1; 0.005-μg/kg/min): -0.2 ± 1.5 pg/mL | Mean change (±standard deviation) in post-infusion concentration of endothelin-1 (endothelin-1; 0.01-μg/kg/min, p=0.04 compared to baseline): -0.6 ± 2.0 pg/mL | Post-infusion levels of endothelin-1 versus baseline (endothelin-1; after the week 12 infusion, all-nesiritide group, p=0.008 (FIG. 2B)): significant change from baseline
